Target: β3-adrenoceptor (β3-AR) (Mus musculus, UniProt P25962)
Experiment: Epac1-camps FRET cAMP concentration-response in mature murine brown adipocytes
Format: cell-based

Sequence of β3-adrenoceptor (β3-AR) (P25962 whole entry): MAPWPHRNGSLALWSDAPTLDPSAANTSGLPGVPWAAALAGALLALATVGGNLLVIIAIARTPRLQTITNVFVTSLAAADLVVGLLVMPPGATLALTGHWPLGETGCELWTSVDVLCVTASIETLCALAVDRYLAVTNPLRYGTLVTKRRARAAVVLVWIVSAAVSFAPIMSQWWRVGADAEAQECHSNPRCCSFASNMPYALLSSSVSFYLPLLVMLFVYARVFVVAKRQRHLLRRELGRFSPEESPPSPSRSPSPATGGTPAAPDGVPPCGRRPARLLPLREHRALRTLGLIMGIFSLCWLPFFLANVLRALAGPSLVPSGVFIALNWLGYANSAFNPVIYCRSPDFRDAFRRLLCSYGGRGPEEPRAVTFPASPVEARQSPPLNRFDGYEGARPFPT

C[C@H](Cc1ccc2c(c1)OC(C(=O)O)(C(=O)O)O2)NC[C@H](O)c1cccc(Cl)c1 [CL, CL 316,243]
EC50: 7.8 µM
